We go through 15 compounds from US20240238425A1, “HSD17B13 Inhibitors and/or Degraders” (Pfizer Inc., priority 2022, published 2024).

Structures can show the parent of a compound that is named as a salt.

The test system of this assay is HiBiT-HSD17β13 fusion protein (N-terminal HiBiT-tagged HSD17β13 isoform D) in Huh7 HiBiT-HSD17β13 OE cells. Kind of assay: Whole-cell Huh7-HSD17B13 HiBiT assay (degrader potency and maximal efficacy, luminescence readout). The format is cell-based, human. The following applies: 24 hour incubation, geometric mean, * = geometric mean for all forms tested (parent and salt forms); for DC50: read-out: Huh7_HIBIT-HSD17β13_DC50 GMean DC50; for Huh7_HIBIT-HSD17β13_DC50 GMean Asymptote Maximum: max. concentration 1 μM. Summed up:
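Huh7 cells stably overexpressing N-terminal HiBiT-tagged HSD17β13 isoform D, clone matched to primary hepatocyte expression, were exposed to an 11-point, 1 in 3.162 dilution series (top 1 μM final) for 24 h at 37° C. Lytic HiBiT luminescence was normalised to DMSO and parental-cell controls; DC50 from four-parameter logistic fit, with CellTiter-Glo counter screen.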
A general note: With HiBiT, luminescence reflects the tagged protein that the partner subunit can reach.

Consider `Cn1c(=O)n(C2CCC(=O)NC2=O)c2ccc(CCCN3CCN(c4cc5cn([C@H]6CC[C@H](CNC(=O)c7cc(F)c(O)c(F)c7F)CC6)nc5cn4)CC3)cc21` (mixture of isomers) [Example 93, N-{[(1r,4r)-4-{5-[4-(3-{1-[(3RS)-2,6-dioxopiperidin-3-yl]-3-methyl-2-oxo-2,3-dihydro-1H-benzimidazol-5-yl}propyl)piperazin-1-yl]-2H-pyrazolo[3,4-c]pyridin-2-yl}cyclohexyl]methyl}-2,3,5-trifluoro-4-hydroxybenzamide, formate salt], for which the DC50 stood at 0.69 nM and the “Huh7_HIBIT-HSD17β13_DC50 GMean Asymptote Maximum” value worked out at 83%.

With `Cn1c(=O)n(C2CCC(=O)NC2=O)c2ccc(CCCN3CCN(c4ccc5cn([C@]67CC[C@](CNC(=O)c8cc(F)c(O)c(F)c8F)(CC6)CC7)nc5c4)CC3)cc21` (mixture of isomers) [Example 94, N-[(4-{6-[4-(3-{1-[(3RS)-2,6-dioxopiperidin-3-yl]-3-methyl-2-oxo-2,3-dihydro-1H-benzimidazol-5-yl}propyl)piperazin-1-yl]-2H-indazol-2-yl}bicyclo[2.2.2]octan-1-yl)methyl]-2,3,5-trifluoro-4-hydroxybenzamide], the DC50 was 0.21 nM and the “Huh7_HIBIT-HSD17β13_DC50 GMean Asymptote Maximum” value is listed as 84%.

Regarding `Cn1c(=O)n(C2CCC(=O)NC2=O)c2ccc(CCCN3CCN(c4ncc(-c5ccc6cn([C@]78CC[C@](CNC(=O)c9cc(F)c(O)c(F)c9F)(CC7)CC8)nc6c5)cn4)CC3)cc21` (mixture of isomers) [Example 95, N-{[4-(6-{2-[4-(3-{1-[(3RS)-2,6-dioxopiperidin-3-yl]-3-methyl-2-oxo-2,3-dihydro-1H-benzimidazol-5-yl}propyl)piperazin-1-yl]pyrimidin-5-yl}-2H-indazol-2-yl)bicyclo[2.2.2]octan-1-yl]methyl}-2,3,5-trifluoro-4-hydroxybenzamide, trifluoroacetate salt], the DC50 turned out to be 0.24 nM and the “Huh7_HIBIT-HSD17β13_DC50 GMean Asymptote Maximum” value is 80%.

In the case of `Cn1c(=O)n(C2CCC(=O)NC2=O)c2ccc(CCCN3CCOC4(C3)CN(c3ccc5cn([C@H]6CC[C@H](CNC(=O)c7cc(F)c(O)c(F)c7F)CC6)nc5c3)C4)cc21` (mixture of isomers) [Example 98, N-{[(1r,4r)-4-{6-[8-(3-{1-[(3RS)-2,6-dioxopiperidin-3-yl]-3-methyl-2-oxo-2,3-dihydro-1H-benzimidazol-5-yl}propyl)-5-oxa-2,8-diazaspiro[3.5]nonan-2-yl]-2H-indazol-2-yl}cyclohexyl]methyl}-2,3,5-trifluoro-4-hydroxybenzamide, trifluoroacetate salt], the DC50 was found to be 0.82 nM and the “Huh7_HIBIT-HSD17β13_DC50 GMean Asymptote Maximum” value was found to be 78%.

With `Cn1c(=O)n(C2CCC(=O)NC2=O)c2ccc(CCCN3CCn4cc(-c5ccc6cn([C@H]7CC[C@H](CNC(=O)c8cc(F)c(O)c(F)c8F)CC7)nc6c5)nc4C3)cc21` (mixture of isomers) [Example 100, N-{[(1r,4r)-4-{6-[7-(3-{1-[(3RS)-2,6-dioxopiperidin-3-yl]-3-methyl-2-oxo-2,3-dihydro-1H-benzimidazol-5-yl}propyl)-5,6,7,8-tetrahydroimidazo[1,2-a]pyrazin-2-yl]-2H-indazol-2-yl}cyclohexyl]methyl}-2,3,5-trifluoro-4-hydroxybenzamide, formate salt], the DC50 was 2.2 nM and the “Huh7_HIBIT-HSD17β13_DC50 GMean Asymptote Maximum” value was determined as 84%.

Take `Cn1c(=O)n(C2CCC(=O)NC2=O)c2ccc(CCCN3CC[C@@H]4CN(c5ccc6cn([C@H]7CC[C@H](CNC(=O)c8cc(F)c(O)c(F)c8F)CC7)nc6c5)C[C@H]4C3)cc21` (mixture of isomers) [Example 101, N-{[(1r,4r)-4-{6-[(3aR,7aS)-5-(3-{1-[(3RS)-2,6-dioxopiperidin-3-yl]-3-methyl-2-oxo-2,3-dihydro-1H-benzimidazol-5-yl}propyl)octahydro-2H-pyrrolo[3,4-c]pyridin-2-yl]-2H-indazol-2-yl}cyclohexyl]methyl}-2,3,5-trifluoro-4-hydroxybenzamide, formate salt]: the DC50 was 0.88 nM and the “Huh7_HIBIT-HSD17β13_DC50 GMean Asymptote Maximum” value amounted to 74%.

As for `Cn1c(=O)n(C2CCC(=O)NC2=O)c2ccc(CCCN3C[C@@H]4CCN(c5ccc6cn([C@H]7CC[C@H](CNC(=O)c8cc(F)c(O)c(F)c8F)CC7)nc6c5)C[C@@H]4C3)cc21` (mixture of isomers) [Example 102, N-{[(1r,4r)-4-{6-[(3aS,7aR)-2-(3-{1-[(3RS)-2,6-dioxopiperidin-3-yl]-3-methyl-2-oxo-2,3-dihydro-1H-benzimidazol-5-yl}propyl)octahydro-5H-pyrrolo[3,4-c]pyridin-5-yl]-2H-indazol-2-yl}cyclohexyl]methyl}-2,3,5-trifluoro-4-hydroxybenzamide, formate salt], the DC50 amounted to 1.5 nM and the “Huh7_HIBIT-HSD17β13_DC50 GMean Asymptote Maximum” value came to 74%.

On to `Cn1c(=O)n(C2CCC(=O)NC2=O)c2ccc(CCN3Cc4ccc(-c5ccc6cn([C@H]7CC[C@H](CNC(=O)c8cc(F)c(O)c(F)c8F)CC7)nc6c5)cc4C3)cc21` (mixture of isomers) [Example 106, N-{[(1r,4r)-4-{6-[2-(2-{1-[(3RS)-2,6-dioxopiperidin-3-yl]-3-methyl-2-oxo-2,3-dihydro-1H-benzimidazol-5-yl}ethyl)-2,3-dihydro-1H-isoindol-5-yl]-2H-indazol-2-yl}cyclohexyl]methyl}-2,3,5-trifluoro-4-hydroxybenzamide, trifluoroacetate salt], for which the DC50 is 0.22 nM and the “Huh7_HIBIT-HSD17β13_DC50 GMean Asymptote Maximum” value was 80%.

`Cn1c(=O)n(C2CCC(=O)NC2=O)c2ccc(CCCN3CCc4nc(-c5ccc6cn([C@H]7CC[C@H](CNC(=O)c8cc(F)c(O)c(F)c8F)CC7)nc6c5)sc4C3)cc21` (mixture of isomers) [Example 115, N-{[(1r,4r)-4-{6-[5-(3-{1-[(3RS)-2,6-dioxopiperidin-3-yl]-3-methyl-2-oxo-2,3-dihydro-1H-benzimidazol-5-yl}propyl)-4,5,6,7-tetrahydro[1,3]thiazolo[5,4-c]pyridin-2-yl]-2H-indazol-2-yl}cyclohexyl]methyl}-2,3,5-trifluoro-4-hydroxybenzamide, trifluoroacetate salt]: the DC50 worked out at 0.26 nM and the “Huh7_HIBIT-HSD17β13_DC50 GMean Asymptote Maximum” value is 79%.

With `Cn1c(=O)n(C2CCC(=O)NC2=O)c2ccc(CCCN3Cc4cc(-c5ccc6cn([C@H]7CC[C@H](CNC(=O)c8cc(F)c(O)c(F)c8F)CC7)nc6c5)cnc4C3)cc21` (mixture of isomers) [Example 116, N-{[(1r,4r)-4-{6-[6-(3-{1-[(3RS)-2,6-dioxopiperidin-3-yl]-3-methyl-2-oxo-2,3-dihydro-1H-benzimidazol-5-yl}propyl)-6,7-dihydro-5H-pyrrolo[3,4-b]pyridin-3-yl]-2H-indazol-2-yl}cyclohexyl]methyl}-2,3,5-trifluoro-4-hydroxybenzamide, trifluoroacetate salt], the DC50 is 0.2 nM and the “Huh7_HIBIT-HSD17β13_DC50 GMean Asymptote Maximum” value is given as 88%.

Turning to `Cn1c(=O)n(C2CCC(=O)NC2=O)c2ccc(CCN3CCOC4(C3)CN(c3ccc5cn([C@H]6CC[C@H](CNC(=O)c7cc(F)c(O)c(F)c7F)CC6)nc5c3)C4)cc21` (mixture of isomers) [Example 117, N-{[(1r,4r)-4-{6-[8-(2-{1-[(3RS)-2,6-dioxopiperidin-3-yl]-3-methyl-2-oxo-2,3-dihydro-1H-benzimidazol-5-yl}ethyl)-5-oxa-2,8-diazaspiro[3.5]nonan-2-yl]-2H-indazol-2-yl}cyclohexyl]methyl}-2,3,5-trifluoro-4-hydroxybenzamide, trifluoroacetate salt], the DC50 stood at 0.95 nM and the “Huh7_HIBIT-HSD17β13_DC50 GMean Asymptote Maximum” value is reported as 79%.

Consider `Cn1c(=O)n(C2CCC(=O)NC2=O)c2ccc(CCCN3C[C@H]4CN(c5ccc6cn([C@H]7CC[C@H](CNC(=O)c8cc(F)c(O)c(F)c8F)CC7)nc6c5)C[C@@H]4C3)cc21` (mixture of isomers) [Example 118, N-{[(1r,4r)-4-{6-[(3aS,6aS)-5-(3-{1-[(3RS)-2,6-dioxopiperidin-3-yl]-3-methyl-2-oxo-2,3-dihydro-1H-benzimidazol-5-yl}propyl)hexahydropyrrolo[3,4-c]pyrrol-2(1H)-yl]-2H-indazol-2-yl}cyclohexyl]methyl}-2,3,5-trifluoro-4-hydroxybenzamide, trifluoroacetate salt], for which the DC50 worked out at 2.9 nM and the “Huh7_HIBIT-HSD17β13_DC50 GMean Asymptote Maximum” value is given as 78%.

Turning to `Cn1c(=O)n(C2CCC(=O)NC2=O)c2ccc(CCCN3Cc4cnc(-c5ccc6cn([C@H]7CC[C@H](CNC(=O)c8cc(F)c(O)c(F)c8F)CC7)nc6c5)cc4C3)cc21` (mixture of isomers) [Example 119, N-{[(1r,4r)-4-{6-[2-(3-{1-[(3RS)-2,6-dioxopiperidin-3-yl]-3-methyl-2-oxo-2,3-dihydro-1H-benzimidazol-5-yl}propyl)-2,3-dihydro-1H-pyrrolo[3,4-c]pyridin-6-yl]-2H-indazol-2-yl}cyclohexyl]methyl}-2,3,5-trifluoro-4-hydroxybenzamide, formate salt], the DC50 stood at 0.28 nM and the “Huh7_HIBIT-HSD17β13_DC50 GMean Asymptote Maximum” value is on record as 75%.

On to `Cn1c(=O)n(C2CCC(=O)NC2=O)c2ccc(CCCN3CCN(c4cnc(-c5ccn6cc([C@]78CC[C@](CNC(=O)c9cc(F)c(O)c(F)c9F)(CC7)CC8)nc6c5)nc4)CC3)cc21` (mixture of isomers) [Example 120, N-{[4-(7-{5-[4-(3-{1-[(3RS)-2,6-dioxopiperidin-3-yl]-3-methyl-2-oxo-2,3-dihydro-1H-benzimidazol-5-yl}propyl)piperazin-1-yl]pyrimidin-2-yl}imidazo[1,2-a]pyridin-2-yl)bicyclo[2.2.2]octan-1-yl]methyl}-2,3,5-trifluoro-4-hydroxybenzamide, trifluoroacetate salt], for which the DC50 came to 0.15 nM and the “Huh7_HIBIT-HSD17β13_DC50 GMean Asymptote Maximum” value was determined as 82%.

As for `Cn1c(=O)n(C2CCC(=O)NC2=O)c2ccc(CCCN3CCN(c4nccc(-c5nc([C@]67CC[C@](CNC(=O)c8cc(F)c(O)c(F)c8F)(CC6)CC7)no5)n4)CC3)cc21` (mixture of isomers) [Example 121, formate salt], the DC50 was found to be 0.2 nM and the “Huh7_HIBIT-HSD17β13_DC50 GMean Asymptote Maximum” value came out at 85%.

One may read the DC50 as the concentration at which degradation of the target reaches its halfway point.
